Laboratory results reported in patent US20060141029A1, “Methods and compositions for delivery of catecholic butanes for treatment of diseases” (priority 2003, published 2006).

Tests used:
[1] = test system: HPV-16 transformed immortal mouse epithelial cells (C3); conditions: cited from earlier work; for tumor growth: intratumor injection, separately or together, C3 tumors in mice
Solubility = assay type: physicochemical
[2] = dog, in vivo, iv
Protocol: In this example the Maximal Tolerable Dose (MTD) of Dimethyl Sulfoxide (DMSO)] to male and female Beagle Dogs was determined.
Thus the M4N-DMSO group animals were administered with M4N-DMSO with eight intravenous injections via the non-VAP jugular vein every 30 minutes over a 4-hour period. This frequency of delivery mimicked the delivery of the test article using the infusion pump.
The dogs in the DMSO group were observed throughout the jugular vein injection period and for at least one hour following the last (eighth) injection.

[3] = DMSO; cited from earlier work
[4] = test system: refractory head and neck carcinomas
Protocol: All patients were diagnosed with refractory head and neck carcinomas.
Nine (9) subjects were dosed with an intratumoral dose of M4N given weekly for three weeks, at doses of 5 mg/cm^3 tumor volume (2 subjects), 10 mg/cm^3 (2 subjects) 15 mg/cm^3 (3 subjects) and 20 mg/cm^3 (2 subjects). Doses up to 495 mg weekly for three weeks were administered.

[5] = Toxicokinetic (TK) analysis of M4N serum concentration in dogs; assay type: in vivo, Beagle Dogs; conditions: DMSO vehicle, doses up to 100 mg/kg
Protocol: Blood samples from the DMSO group animals were collected via the cephalic vein on SD 1, SD 3, SD 6, and SD 8 at the following timepoints: predose, 0.25, 0.5, 1, 2, 4, 8, and 16 hours following the final injection dose of M4N-DMSO. Blood samples collected from the animals were processed for plasma and serum for TK analysis.
The plasma and serum samples were sent to MedTox Laboratories, the Sponsor's designated laboratory for TK analysis. TK analysis of M4N plasma and serum concentration-time data was performed using a validated method (M200406) by MedTox Laboratories and analyzed by noncompartmental methods to obtain estimates of toxicokinetic parameters (where data allow), but not necessarily limited to, Cmax, Tmax and AUC.

head and neck cancer = experiment: ex-US clinical study, daily M4N with or without G4N followed by surgical resection; assay type: in vivo, humans
β-amyloid fibrils = conditions: in vitro; cited from earlier work
[6] = test system: mammary carcinoma MX-1 xenograft; conditions: intratumoral single dose or topical application, athymic mice; cited from earlier work
[7] = rodents; cited from earlier work
fAβ(1-42) = target: T1, fAβ(1-42) (Homo sapiens, UniProt P05067); conditions: within a few hours at pH 7.5 at 37° C.; cited from earlier work
T1 construct: fAβ(1-42) within a few hours at pH 7.5
T1 sequence (P05067 672-713 limits assumed): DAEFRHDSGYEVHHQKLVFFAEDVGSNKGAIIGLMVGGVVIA

fAβ(1-40) = target: T2, fAβ(1-40) (Homo sapiens, UniProt P05067); conditions: within a few hours at pH 7.5 at 37° C.; cited from earlier work
T2 construct: broke down fAβ(1-40)
T2 sequence (P05067 672-711 limits assumed): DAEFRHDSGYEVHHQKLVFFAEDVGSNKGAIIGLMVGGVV

[8] = in vivo; cited from earlier work

SMILES: C[C@H](Cc1ccc(OC(=O)CN(C)C)c(OC(=O)CN(C)C)c1)[C@@H](C)Cc1ccc(OC(=O)CN(C)C)c(OC(=O)CN(C)C)c1 [G4N, meso-1,4-bis[3,4-(dimethylaminoacetoxy)phenyl]-(2R,3S)-dimethylbutane]
- tumor growth [1]: some evidence of suppression of tumor growth
- water solubility (Solubility): water-soluble

SMILES: COc1ccc(C[C@@H](C)[C@@H](C)Cc2ccc(OC)c(OC)c2)cc1OC [M4N, meso-1,4-bis(3,4-dimethoxyphenyl)-2,3-dimethylbutane]
- dose safely administered [2]: up to 100 mg/kg
- solubility in dimethyl sulfoxide [3]: soluble
- penetration of tumor tissues ([1]; composition of M4N in DMSO injected into the tumor): penetrate most but not all of the tumor tissues
- tumor growth [1]: some evidence of suppression of tumor growth
- damage to healthy tissue surrounding the tumor ([4]; in vivo): No damage
- dose delivered without drug-related toxicity ([4]; in vivo): up to 495 mg
- dosing related adverse events ([4]; in vivo): mild or moderate pain on injection
- hematology parameters ([4]; in vivo): No changes attributable to drug
- liver function tests (LFTs) ([4]; in vivo): Sporadic, and non-reproducible mild elevations
- number of Serious Adverse Events (SAE) ([4]; in vivo): 6
- relation of SAEs to study medication ([4]; in vivo): unlikely or not related to study medication
- tolerability of dosing ([4]; in vivo): generally well tolerated
- patients with radiologically confirmed tumor volume reduction ([4]; patients completing three doses): three of the six
- efficacy in terms of induction of necrosis ([4]; patients that completed the treatment, weekly escalating doses): over 80%
- subjects with drug related tumor necrosis after injection ([4]; subjects receiving three doses): 5 of 6
- blood levels of M4N achieved [5]: up to 14,000 ng/ml
- dosage delivered without drug-related toxicity (head and neck cancer; for up to five days, with or without G4N 20 mg per day): 20 mg per day
- patients remaining disease free (head and neck cancer; long-term follow ups of the ex-US study): 64%
- efficacy in terms of induction of necrosis (head and neck cancer; patients that completed the treatment, daily dosing then resection): over 80%

SMILES: CC(Cc1ccc(O)c(O)c1)C(C)Cc1ccc(O)c(O)c1 (centres unmarked) [NDGA, nordihydroguaiaretic acid]
- β-amyloid fibrils (fAβ) formation (β-amyloid fibrils): inhibited
- tumor growth [6]: Some evidence of inhibition of tumor growth
- serum glucose [7]: reducing
- serum non-esterified fatty acids [7]: reducing
- serum triglyceride [7]: reducing
- breakdown of fAβ(1-42) (fAβ(1-42)): dose-dependently broke down
- breakdown of fAβ(1-40) (fAβ(1-40)): dose-dependently broke down
- hypertension [8]: reducing hypertension
